From ChEMBL document CHEMBL1201862, “PubChem BioAssay data set” (2004)
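Interpolation was linear, between the two tested concentrations surrounding the appropriate level; five concentrations were tested over 48 hours in 96-well plates. GI50 = concentration required for 50% inhibition of growth.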 The source made the active and inactive calls. Rule as the data show it: active = GI50 up to about 1.1 µM and inactive = higher.

How the values were obtained:
Experiment in all cases: NCI-60 cell line screen, 48 h
COLO 205 = test system: COLO 205
KM12 = test system: KM12
SF-295 = test system: SF-295
PC-3 = test system: PC-3
SN12C = test system: SN12C
SK-MEL-28 = test system: SK-MEL-28
UACC-62 = test system: UACC-62
786-0 = test system: 786-0
T47D = test system: T47D
ACHN = test system: ACHN
SK-MEL-5 = test system: SK-MEL-5
UACC-257 = test system: UACC-257
NCI/ADR-RES = test system: NCI/ADR-RES
SR = test system: SR
RXF 393 = test system: RXF 393
MDA-N = test system: MDA-N
MCF7 = test system: MCF7
UO-31 = test system: UO-31
EKVX = test system: EKVX
OVCAR-4 = test system: OVCAR-4
HOP-62 = test system: HOP-62
SK-MEL-2 = test system: SK-MEL-2
MDA-MB-231 = test system: MDA-MB-231
OVCAR-8 = test system: OVCAR-8
SW-620 = test system: SW-620
SF-539 = test system: SF-539
SK-OV-3 = test system: SK-OV-3
Hs-578T = test system: Hs-578T
K562 = test system: K562
HCT-116 = test system: HCT-116
A549 = test system: A549
MDA-MB-435 = test system: MDA-MB-435
TK-10 = test system: TK-10
M14 = test system: M14
HCC 2998 = test system: HCC 2998
NCI-H460 = test system: NCI-H460
HT-29 = test system: HT-29
NCI-H23 = test system: NCI-H23
MOLT-4 = test system: MOLT-4
CCRF-CEM = test system: CCRF-CEM
U-251 = test system: U-251
DU-145 = test system: DU-145
OVCAR-3 = test system: OVCAR-3
OVCAR-5 = test system: OVCAR-5
LOX IMVI = test system: LOX IMVI
IGROV-1 = test system: IGROV-1
HL-60 = test system: HL-60
SF-268 = test system: SF-268
Malme-3M = test system: Malme-3M
NCI-H522 = test system: NCI-H522
BT-549 = test system: BT-549
SNB-19 = test system: SNB-19
CAKI-1 = test system: CAKI-1
HCT-15 = test system: HCT-15
NCI-H226 = test system: NCI-H226

Measured: GI50

COCC1OC(S(=O)(=O)c2ccccc2)C(O)C(OC)C1OC (stereo not given)
> 100 µM: HCT-15
inactive: COLO 205 > 100 µM | KM12 > 100 µM | SF-295 > 100 µM | PC-3 > 100 µM | SN12C > 100 µM | SK-MEL-28 > 100 µM | UACC-62 > 100 µM | 786-0 > 100 µM | T47D > 100 µM | ACHN > 100 µM | SK-MEL-5 > 100 µM | UACC-257 > 100 µM | NCI/ADR-RES > 100 µM | SR > 100 µM | RXF 393 > 100 µM | MDA-N > 100 µM | MCF7 > 100 µM | UO-31 > 100 µM | EKVX > 100 µM | OVCAR-4 > 100 µM | HOP-62 > 100 µM | SK-MEL-2 > 100 µM | MDA-MB-231 > 100 µM | OVCAR-8 > 100 µM | SW-620 > 100 µM | SF-539 > 100 µM | SK-OV-3 > 100 µM | Hs-578T > 100 µM | K562 > 100 µM | HCT-116 > 100 µM | A549 > 100 µM | MDA-MB-435 > 100 µM | TK-10 > 100 µM | M14 > 100 µM | HCC 2998 > 100 µM | NCI-H460 > 100 µM | HT-29 > 100 µM | NCI-H23 > 100 µM | MOLT-4 > 100 µM | CCRF-CEM > 100 µM | U-251 > 100 µM | DU-145 > 100 µM | OVCAR-3 > 100 µM | OVCAR-5 > 100 µM | LOX IMVI > 100 µM | IGROV-1 > 100 µM | HL-60 > 100 µM | SF-268 > 100 µM | Malme-3M > 100 µM | NCI-H522 > 100 µM | BT-549 > 100 µM | SNB-19 > 100 µM | CAKI-1 > 100 µM | NCI-H226 > 100 µM
